Test results taken from patent publication US12209087B2, “AKT1 modulators” (Alterome Therapeutics, Inc., priority 2022, dated 2025).

Target: T1, full length AKT E17K (Homo sapiens, UniProt P31749, E17K)
T1 construct: host or cells: HEK-293 (ATCC CRL-1573)
Test: NanoBRET Target Engagement (TE) Assay
Type: cell-based
Conditions: competitive tracer displacement in living cells, read-out: AKT1 E17K IC50
Procedure, shortened: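 Compound and tracer incubated 2 h before luminescence at donor 450 nm and acceptor 600 nm, with extracellular signal inhibited. EC50 by sigmoidal variable-slope regression.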

T1 sequence (P31749 whole entry E17K): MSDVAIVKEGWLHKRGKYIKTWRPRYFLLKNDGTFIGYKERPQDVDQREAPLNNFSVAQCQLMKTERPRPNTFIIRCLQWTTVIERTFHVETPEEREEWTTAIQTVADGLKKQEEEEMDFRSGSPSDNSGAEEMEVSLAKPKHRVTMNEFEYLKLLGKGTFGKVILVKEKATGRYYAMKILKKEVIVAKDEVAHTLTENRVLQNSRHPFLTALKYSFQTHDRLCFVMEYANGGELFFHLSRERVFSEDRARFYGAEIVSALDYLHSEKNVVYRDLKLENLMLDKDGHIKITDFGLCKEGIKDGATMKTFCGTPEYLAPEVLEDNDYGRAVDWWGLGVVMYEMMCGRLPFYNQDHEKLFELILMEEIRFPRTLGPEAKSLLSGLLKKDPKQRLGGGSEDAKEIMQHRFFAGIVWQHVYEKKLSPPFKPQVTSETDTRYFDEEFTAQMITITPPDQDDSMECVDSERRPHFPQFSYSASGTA

Row | Compound | IC50 [nM]
1 | N#Cc1nccc(N2CCN(Cc3ccc(-n4c(-c5cccnc5N)nc5ccc(-c6cccc(=O)[nH]6)nc54)cc3)CC2)n1 [Example 238, 4-(4-(4-(2-(2-Aminopyridin-3-yl)-5-(6-oxo-1,6-dihydropyridin-2-yl)-3H-imidazo[4,5-b]pyridin-3-yl)benzyl)piperazin-1-yl)pyrimidine-2-carbonitrile] | 15 to 60
2 | N#Cc1nccc(N2CCN(Cc3ccc(-n4c(-c5cccnc5N)nc5ccc(-c6ccc(F)cc6)nc54)cc3)CC2)n1 [Example 242, 4-(4-(4-(2-(2-Aminopyridin-3-yl)-5-(4-fluorophenyl)-3H-imidazo[4,5-b]pyridin-3-yl)benzyl)piperazin-1-yl)pyrimidine-2-carbonitrile] | 15 to 60
3 | N#Cc1ccnc(N2CCN(Cc3ccc(-n4c(-c5cccnc5N)nc5ccc(-c6ccc(F)cc6)nc54)cc3)CC2)n1 [Example 243, 2-(4-(4-(2-(2-Aminopyridin-3-yl)-5-(4-fluorophenyl)-3H-imidazo[4,5-b]pyridin-3-yl)benzyl)piperazin-1-yl)pyrimidine-4-carbonitrile] | 60 to 600
4 | N#Cc1nc(C(=O)NCc2ccc(-n3c(-c4cccnc4N)nc4cccnc43)cc2)cs1 [Example 244, N-(4-(2-(2-Aminopyridin-3-yl)-3H-imidazo[4,5-b]pyridin-3-yl)benzyl)-2-cyanothiazole-4-carboxamide] | 600 to 10000
5 | N#Cc1nc(C(=O)N2CCN(Cc3ccc(-n4c(-c5cccnc5N)nc5ccc(-c6ccccc6)nc54)cc3)CC2)cs1 [Example 247, 4-(4-(4-(2-(2-Aminopyridin-3-yl)-5-phenyl-3H-imidazo[4,5-b]pyridin-3-yl)benzyl)piperazine-1-carbonyl)thiazole-2-carbonitrile] | < 15
6 | N#Cc1ncnc(NC2CC3(CCN(Cc4ccc(-n5c(-c6cccnc6N)nc6ccc(-c7ccccc7)nc65)cc4)CC3)C2)n1 [Example 248, 4-((7-(4-(2-(2-aminopyridin-3-yl)-5-phenyl-3H-imidazo[4,5-b]pyridin-3-yl)benzyl)-7-azaspiro[3.5]nonan-2-yl)amino)-1,3,5-triazine-2-carbonitrile] | < 15
7 | N#Cc1ncnc(N2CC3(CCN(Cc4ccc(-n5c(-c6cccnc6N)nc6ccc(-c7ccccc7)nc65)cc4)CC3)C2)n1 [Example 249, 4-(7-(4-(2-(2-aminopyridin-3-yl)-5-phenyl-3H-imidazo[4,5-b]pyridin-3-yl)benzyl)-2,7-diazaspiro[3.5]nonan-2-yl)-1,3,5-triazine-2-carbonitrile] | 15 to 60

Other lines, results leading:

Row | IC50 [nM] | Compound
8 | < 15 | N#Cc1nccc(NC2CCN(Cc3ccc(-n4c(-c5cccnc5N)nc5ccc(N6CCOCC6)nc54)cc3)CC2)n1 [Example 239, 4-((1-(4-(2-(2-Aminopyridin-3-yl)-5-morpholino-3H-imidazo[4,5-b]pyridin-3-yl)benzyl)piperidin-4-yl)amino)pyrimidine-2-carbonitrile]
9 | 15 to 60 | N#Cc1ccnc(NC2CCN(Cc3ccc(-n4c(-c5cccnc5N)nc5ccc(N6CCOCC6)nc54)cc3)CC2)n1 [Example 240, 2-((1-(4-(2-(2-Aminopyridin-3-yl)-5-morpholino-3H-imidazo[4,5-b]pyridin-3-yl)benzyl)piperidin-4-yl)amino)pyrimidine-4-carbonitrile]
10 | 15 to 60 | N#Cc1cc(NC2CCN(Cc3ccc(-n4c(-c5cccnc5N)nc5ccc(N6CCOCC6)nc54)cc3)CC2)ncn1 [Example 241, 6-((1-(4-(2-(2-Aminopyridin-3-yl)-5-morpholino-3H-imidazo[4,5-b]pyridin-3-yl)benzyl)piperidin-4-yl)amino)pyrimidine-4-carbonitrile]
11 | 15 to 60 | N#Cc1ncnc(N2CCCN(Cc3ccc(-n4c(-c5cccnc5N)nc5ccc(-c6ccccc6)nc54)cc3)CC2)n1 [Example 250, 4-(4-(4-(2-(2-Aminopyridin-3-yl)-5-phenyl-3H-imidazo[4,5-b]pyridin-3-yl)benzyl)-1,4-diazepan-1-yl)-1,3,5-triazine-2-carbonitrile]
